Patent US20230167127A1, “COMPOUNDS AND THEIR USE IN THE TREATMENT OF BACTERIAL INFECTION” (Hoffmann-La Roche Inc., priority 2020, published 2023)

Tested on: Escherichia coli ATCC 25922
Assay: 50% growth inhibitory concentration (IC50) determination, Iso-Sensitest broth dilution
Assay type: cell-based
Conditions: Escherichia coli, ATCC25922, 16 h, strain Escherichia coli ATCC 25922; 10-point broth dilution, optical density at 600 nm over 16 h; read-out: Escherichia coli growth inhibition IC50
In short: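 Growth was tracked as optical density at 600 nm every 20 minutes for 16 h at 35±2° C. Compounds from DMSO stocks were serially diluted twofold over 10 points (e.g. 50–0.097 μM final) in Iso-Sensitest broth. Inhibition computed in log-phase growth to give IC50.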

| SMILES | IC50 [nM] |
| --- | --- |
| CC(CN)Oc1cc(F)c2c(c1)CC(CNCCC1CN(c3ccc4c(n3)NC(=O)CO4)C(=O)O1)C2 (centres unmarked) [Example 155, 6-[5-[2-[[6-(1-aminopropan-2-yloxy)-4-fluoro-2,3-dihydro-1H-inden-2-yl]methylamino]ethyl]-2-oxo-1,3-oxazolidin-3-yl]-4H-pyrido[3,2-b][1,4]oxazin-3-one; formic acid] | 364 |
| Cc1nccc2c1CC(CNCCc1cn(-c3cnc4c(n3)NC(=O)CO4)c(=O)o1)C2 (centres unmarked) [Example 371, 6-[5-[2-[(1-methyl-6,7-dihydro-5H-cyclopenta[c]pyridin-6-yl)methylamino]ethyl]-2-oxo-1,3-oxazol-3-yl]-4H-pyrazino[2,3-b][1,4]oxazin-3-one] | < 97.7 |
| NC(=O)COc1cc(F)c2c(c1)CC(CNCCC1CN(c3cnc4c(n3)NC(=O)CO4)C(=O)O1)C2 (centres unmarked) [Example 305, 2-[[7-fluoro-2-[[2-[2-oxo-3-(3-oxo-4H-pyrazino[2,3-b][1,4]oxazin-6-yl)-1,3-oxazolidin-5-yl]ethylamino]methyl]-2,3-dihydro-1H-inden-5-yl]oxy]acetamide] | < 97.7 |
| CC(C)(N)COc1cc(F)c2c(c1F)CC(CN1CCC3(CC1)CN(c1cnc4c(n1)NC(=O)CO4)C(=O)O3)C2 (centres unmarked) [Example 412, 6-[8-[[5-(2-amino-2-methylpropoxy)-4,7-difluoro-2,3-dihydro-1H-inden-2-yl]methyl]-2-oxo-1-oxa-3,8-diazaspiro[4.5]decan-3-yl]-4H-pyrazino[2,3-b][1,4]oxazin-3-one; formic acid] | < 97.7 |
| CC(=O)N1CC(Oc2cc(F)c3c(c2)CC(CNCCC2CN(c4cnc5c(n4)NC(=O)CO5)C(=O)O2)C3)C1 (centres unmarked) [Example 354, 6-[5-[2-[[6-(1-acetylazetidin-3-yl)oxy-4-fluoro-2,3-dihydro-1H-inden-2-yl]methylamino]ethyl]-2-oxo-1,3-oxazolidin-3-yl]-4H-pyrazino[2,3-b][1,4]oxazin-3-one; formic acid] | 392 |
| COc1nc(C)c2c(c1C)CC(CNCCC1CN(c3ccc4c(n3)NC(=O)CO4)C(=O)O1)C2 (centres unmarked) [Example 106, 6-[5-[2-[(3-methoxy-1,4-dimethyl-6,7-dihydro-5H-cyclopenta[c]pyridin-6-yl)methylamino]ethyl]-2-oxo-1,3-oxazolidin-3-yl]-4H-pyrido[3,2-b][1,4]oxazin-3-one] | 259 |

Other lines, results leading:

| IC50 [nM] | SMILES |
| --- | --- |
| < 97.7 | Cc1ncc(F)c2c1CC(C(C)NCC[C@@H]1CN(c3cnc4c(n3)NC(=O)CO4)C(=O)O1)C2 (some centres unmarked) [Example 331] |
| 206 | NC1c2cccc(Cl)c2CC1CCNCC1CN(c2cnc3c(n2)NC(=O)CO3)C(=O)O1 (racemic) [Example 266, 6-[2-Oxo-5-[[2-[rac-1,2-trans-1-amino-4-chloro-2,3-dihydro-1H-inden-2-yl]ethylamino]methyl]-1,3-oxazolidin-3-yl]-4H-pyrazino[2,3-b][1,4]oxazin-3-one] |
| < 97.7 | Cc1ncc(Cl)c2c1CC(CNCCC1CN(c3ccc4c(n3)NC(=O)CO4)C(=O)O1)C2 (centres unmarked) [Example 55, 6-[5-[2-[(4-chloro-1-methyl-6,7-dihydro-5H-cyclopenta[c]pyridin-6-yl)methylamino]ethyl]-2-oxo-1,3-oxazolidin-3-yl]-4H-pyrido[3,2-b][1,4]oxazin-3-one; formic acid] |
| < 97.7 | NC1c2cccc(Cl)c2CC1CCNCC1CN(c2ccc3c(n2)NC(=O)CO3)C(=O)O1 (racemic) [Example 194, 6-[2-oxo-5-[[2-[rac-1,2-trans-1-amino-4-chloro-2,3-dihydro-1H-inden-2-yl]ethylamino]methyl]-1,3-oxazolidin-3-yl]-4H-pyrido[3,2-b][1,4]oxazin-3-one] |
| 139 | CNC(=O)COc1cc(C#N)c2c(c1C)CC(CNCCC1CN(c3cnc4c(n3)NC(=O)CO4)C(=O)O1)C2 (centres unmarked) [Example 383, 2-[[7-cyano-4-methyl-2-[[2-[2-oxo-3-(3-oxo-4H-pyrazino[2,3-b][1,4]oxazin-6-yl)-1,3-oxazolidin-5-yl]ethylamino]methyl]-2,3-dihydro-1H-inden-5-yl]oxy]-N-methylacetamide] |
